Results reported in PubChem BioAssay AID328 (DTP/NCI, 2004).
“And” between values parts separate entries of the source, which are not always exact repeats. Equal entries are not always repeated. Toxic doses and inconclusive results are not listed. The calls were made as follows: active = survival T/C of 150% or more; inactive = T/C below 125% in these data.

Test system: BDF1 mice, P388 leukemia ip, median survival T/C
Assay: NCI In Vivo Anticancer Drug Screen. Data for tumor model P388 Leukemia (intraperitoneal) in B6D2F1 (BDF1) mice
Conditions: endpoint: median survival time, higher = longer survival
Summary of the method: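 Antitumour effect was judged in vivo: survival in drug-treated mice, normalised to that of vehicle-dosed controls, gives the reported T/C.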

[1] = dose: 100.0 mg/kg/injection, schedule: Q01DX009 (ip), vehicle: Klucel (hydroxypropylcellulose) (HPC)
[2] = dose: 100.0 mg/kg/injection, schedule: Q04DX003 (ip), vehicle: Klucel (hydroxypropylcellulose) (HPC)
[3] = dose: 200.0 mg/kg/injection, schedule: Q04DX003 (ip), vehicle: Klucel (hydroxypropylcellulose) (HPC)
[4] = dose: 400.0 mg/kg/injection, schedule: Q04DX003 (ip), vehicle: Klucel (hydroxypropylcellulose) (HPC)
[5] = dose: 50.0 mg/kg/injection, schedule: Q04DX003 (ip), vehicle: Klucel (hydroxypropylcellulose) (HPC)
[6] = dose: 100.0 mg/kg/injection, schedule: Q04DX003 (ip), vehicle: saline with Tween-80
[7] = dose: 200.0 mg/kg/injection, schedule: Q04DX003 (ip), vehicle: saline with Tween-80
[8] = dose: 400.0 mg/kg/injection, schedule: Q04DX003 (ip), vehicle: saline with Tween-80
[9] = dose: 25.0 mg/kg/injection, schedule: Q04DX003 (ip), vehicle: saline
[10] = dose: 50.0 mg/kg/injection, schedule: Q04DX003 (ip), vehicle: saline
[11] = dose: 75.0 mg/kg/injection, schedule: Q04DX003 (ip), vehicle: Klucel (hydroxypropylcellulose) (HPC)
[12] = dose: 12.5 mg/kg/injection, schedule: Q01DX009 (ip), vehicle: saline
[13] = dose: 25.0 mg/kg/injection, schedule: Q01DX009 (ip), vehicle: saline
[14] = dose: 50.0 mg/kg/injection, schedule: Q01DX009 (ip), vehicle: saline
[15] = dose: 25.0 mg/kg/injection, schedule: Q01DX009 (ip), vehicle: Klucel (hydroxypropylcellulose) (HPC)
[16] = dose: 50.0 mg/kg/injection, schedule: Q01DX009 (ip), vehicle: Klucel (hydroxypropylcellulose) (HPC)

Measured: T/C

O=C(NCCCl)OCC(F)(F)F
inactive: dose: 50.0 mg/kg/injection, schedule: Q01DX005 (ip), vehicle: Klucel (hydroxypropylcellulose) (HPC) 113 % of control | dose: 100.0 mg/kg/injection, schedule: Q01DX005 (ip), vehicle: Klucel (hydroxypropylcellulose) (HPC) 97 % of control | dose: 200.0 mg/kg/injection, schedule: Q01DX005 (ip), vehicle: Klucel (hydroxypropylcellulose) (HPC) 108 % of control

CCOC(=O)C(OCc1ccccc1)(C(=O)NCCc1ccc(OC)c(OC)c1)C(C)C (stereo not given)
inactive: dose: 25.0 mg/kg/injection, schedule: Q04DX003 (ip), vehicle: other 100 % of control | dose: 50.0 mg/kg/injection, schedule: Q04DX003 (ip), vehicle: other 108 % of control | dose: 100.0 mg/kg/injection, schedule: Q04DX003 (ip), vehicle: other 93 % of control

CSc1ccc(NC(=O)C(O)C(O)C(O)C(O)CO)cc1 (stereo not given)
inactive: dose: 75.0 mg/kg/injection, schedule: Q01DX009 (ip), vehicle: saline with Tween-80 100 % of control | dose: 100.0 mg/kg/injection, schedule: Q04DX003 (ip), vehicle: saline sonified 104 % of control | dose: 150.0 mg/kg/injection, schedule: Q01DX009 (ip), vehicle: saline with Tween-80 100 % of control | dose: 200.0 mg/kg/injection, schedule: Q04DX003 (ip), vehicle: saline sonified 104 % of control | dose: 300.0 mg/kg/injection, schedule: Q01DX009 (ip), vehicle: saline with Tween-80 100 % of control | dose: 400.0 mg/kg/injection, schedule: Q04DX003 (ip), vehicle: saline sonified 104 % of control

O=c1[nH]cnc2[nH]ccc12
inactive: dose: 6.25 mg/kg/injection, schedule: Q01DX009 (ip), vehicle: saline with Tween-80 99 % of control | dose: 12.5 mg/kg/injection, schedule: Q01DX009 (ip), vehicle: saline with Tween-80 103 % of control | dose: 25.0 mg/kg/injection, schedule: Q01DX009 (ip), vehicle: saline with Tween-80 96 % of control | dose: 50.0 mg/kg/injection, schedule: Q01DX009 (ip), vehicle: saline with Tween-80 99 % of control

CS(=O)(=O)OCc1c(O)c2c(c(O)c1COS(C)(=O)=O)C(=O)C=CC2=O
inactive: dose: 3.12 mg/kg/injection, schedule: Q01DX009 (ip), vehicle: water 103 % of control | dose: 3.12 mg/kg/injection, schedule: Q04DX003 (ip), vehicle: water 102 % of control | dose: 6.25 mg/kg/injection, schedule: Q01DX009 (ip), vehicle: water 114 % of control | dose: 6.25 mg/kg/injection, schedule: Q04DX003 (ip), vehicle: water 102 % of control | dose: 12.5 mg/kg/injection, schedule: Q01DX009 (ip), vehicle: water 106 % of control | dose: 12.5 mg/kg/injection, schedule: Q04DX003 (ip), vehicle: water 93 % of control | dose: 25.0 mg/kg/injection, schedule: Q01DX009 (ip), vehicle: water 107 % of control | dose: 25.0 mg/kg/injection, schedule: Q04DX003 (ip), vehicle: water 101 % of control | dose: 50.0 mg/kg/injection, schedule: Q01DX009 (ip), vehicle: water 116 % of control | dose: 50.0 mg/kg/injection, schedule: Q04DX003 (ip), vehicle: water 102 % of control | dose: 100.0 mg/kg/injection, schedule: Q01DX009 (ip), vehicle: water 94 % of control | dose: 100.0 mg/kg/injection, schedule: Q04DX003 (ip), vehicle: water 108 % of control and 109 % of control

c1ccc(NNC(c2ccccc2)(c2ccccc2)c2ccccc2)cc1
inactive: [1] 90 % of control | [2] 104 % of control | dose: 200.0 mg/kg/injection, schedule: Q01DX009 (ip), vehicle: Klucel (hydroxypropylcellulose) (HPC) 100 % of control | [3] 91 % of control | dose: 400.0 mg/kg/injection, schedule: Q01DX009 (ip), vehicle: Klucel (hydroxypropylcellulose) (HPC) 90 % of control | [4] 95 % of control

O=C(O)/C(=C\c1ccncc1)c1cccc2ccccc12
inactive: [5] 100 % of control | [2] 100 % of control | [3] 100 % of control

CC(NC1=NCCO1)c1cccc2ccccc12 (stereo not given)
inactive: dose: 100.0 mg/kg/injection, schedule: Q01DX001 (ip), vehicle: saline with Tween-80 91 % of control | dose: 200.0 mg/kg/injection, schedule: Q01DX001 (ip), vehicle: saline with Tween-80 91 % of control | dose: 400.0 mg/kg/injection, schedule: Q01DX001 (ip), vehicle: saline with Tween-80 91 % of control

COc1ccc(CNCCNCc2ccc(OC)c(OC)c2)cc1OC
inactive: [6] 115 % of control | [7] 105 % of control | [8] 110 % of control

CCn1cnc2c(SC)ncnc21
inactive: dose: 18.75 mg/kg/injection, schedule: Q01DX009 (ip), vehicle: saline 109 % of control | [9] 86 % of control | dose: 37.5 mg/kg/injection, schedule: Q01DX009 (ip), vehicle: saline 100 % of control | [10] 104 % of control | dose: 75.0 mg/kg/injection, schedule: Q01DX009 (ip), vehicle: saline 104 % of control | [11] 95 % of control

CCOc1ccn(CC(=O)Nc2nccs2)c(=O)n1
inactive: [12] 104 % of control | [13] 95 % of control | [14] 104 % of control | [10] 114 % of control | dose: 100.0 mg/kg/injection, schedule: Q01DX009 (ip), vehicle: saline 104 % of control | dose: 200.0 mg/kg/injection, schedule: Q01DX009 (ip), vehicle: saline 100 % of control | dose: 200.0 mg/kg/injection, schedule: Q04DX003 (ip), vehicle: saline 106 % of control | dose: 400.0 mg/kg/injection, schedule: Q01DX009 (ip), vehicle: saline 94 % of control | dose: 400.0 mg/kg/injection, schedule: Q04DX003 (ip), vehicle: saline 97 % of control

CCCCCCCCC(=O)CCC
inactive: [5] 100 % of control | [2] 109 % of control | [3] 100 % of control | [4] 87 % of control

CCN(CC)P1(=S)OCC(C)O1 (stereo not given)
inactive: [6] 92 % of control | [7] 100 % of control | [8] 111 % of control

N#Cc1ccccc1NN=Nc1ccccc1-c1nc(N)nc(N)n1
inactive: dose: 12.0 mg/kg/injection, schedule: Q04DX003 (ip), vehicle: saline with Tween-80 115 % of control | dose: 12.0 mg/kg/injection, schedule: Q04DX003 (ip), vehicle: saline 108 % of control | [15] 100 % of control | dose: 25.0 mg/kg/injection, schedule: Q04DX003 (ip), vehicle: Klucel (hydroxypropylcellulose) (HPC) 104 % of control | dose: 25.0 mg/kg/injection, schedule: Q04DX003 (ip), vehicle: saline with Tween-80 105 % of control | [9] 112 % of control | dose: 35.0 mg/kg/injection, schedule: Q01DX009 (ip), vehicle: Klucel (hydroxypropylcellulose) (HPC) 100 % of control | dose: 35.0 mg/kg/injection, schedule: Q04DX003 (ip), vehicle: Klucel (hydroxypropylcellulose) (HPC) 95 % of control | [16] 90 % of control | [5] 104 % of control | dose: 50.0 mg/kg/injection, schedule: Q04DX003 (ip), vehicle: saline with Tween-80 115 % of control | [10] 116 % of control | dose: 75.0 mg/kg/injection, schedule: Q01DX009 (ip), vehicle: Klucel (hydroxypropylcellulose) (HPC) 90 % of control and 95 % of control | [11] 95 % of control | [1] 122 % of control

CCC(=O)NC1=CC(=O)c2ccccc2C1=O
inactive: dose: 12.5 mg/kg/injection, schedule: Q01DX009 (ip), vehicle: Klucel (hydroxypropylcellulose) (HPC) 109 % of control | [15] 109 % of control | [16] 122 % of control

CCN=NNc1ccc(C)cc1
inactive: dose: 8.25 mg/kg/injection, schedule: Q01DX009 (ip), vehicle: saline with Tween-80 90 % of control | dose: 16.5 mg/kg/injection, schedule: Q01DX009 (ip), vehicle: saline with Tween-80 100 % of control | dose: 66.0 mg/kg/injection, schedule: Q01DX009 (ip), vehicle: saline with Tween-80 100 % of control | dose: 100.0 mg/kg/injection, schedule: Q01DX009 (ip), vehicle: saline with Tween-80 108 % of control

CCN(CC)CCn1c(=O)c2ccccc2c2ccccc21
inactive: [12] 120 % of control | [13] 105 % of control | [14] 120 % of control
